#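 Growth conditions: 96-well plates. Treatment: test compound, 48 hours, 5 concentrations. Analysis: linear interpolation between bracketing concentrations; unreached endpoints set to highest concentration. Abbreviation: GI50, concentration required for 50% inhibition of growth. Definition used: TGI = concentration required for complete inhibition of growth.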
# What was measured:
# Assay in all cases: NCI anticancer screen, dose series, 48 h
# A498 renal = tested on: A498 renal
# ACHN renal = tested on: ACHN renal
# HL-60(TB) leukemia = tested on: HL-60(TB) leukemia
# HOP-62 NSCLC = tested on: HOP-62 NSCLC
# HOP-92 NSCLC = tested on: HOP-92 NSCLC
# HT29 colon = tested on: HT29 colon
# SK-MEL-2 melanoma = tested on: SK-MEL-2 melanoma
# SW-620 colon = tested on: SW-620 colon
# UACC-257 melanoma = tested on: UACC-257 melanoma
# DU-145 prostate = tested on: DU-145 prostate
SMILES,TGI (A498 renal) [µM],TGI (ACHN renal) [µM],TGI (HL-60(TB) leukemia) [µM],TGI (HOP-62 NSCLC) [µM],TGI (HOP-92 NSCLC) [µM],TGI (HT29 colon) [µM],TGI (SK-MEL-2 melanoma) [µM],TGI (SW-620 colon) [µM],TGI (UACC-257 melanoma) [µM],TGI (DU-145 prostate) [µM],GI50 (ACHN renal) [µM],GI50 (HL-60(TB) leukemia) [µM],GI50 (HOP-62 NSCLC) [µM],GI50 (HOP-92 NSCLC) [µM],GI50 (HT29 colon) [µM],GI50 (SK-MEL-2 melanoma) [µM],GI50 (UACC-257 melanoma) [µM],GI50 (A498 renal) [µM],GI50 (SW-620 colon) [µM]
CC1=NN(C(=O)c2ccc(Cl)cc2)C(=O)/C1=C/c1cccc([N+](=O)[O-])c1,> 100,> 100,> 100,> 100,> 100,> 100,> 100,> 100,> 100,–,–,–,–,–,–,–,–,–,–
CN(C)c1ccc(C(N)=O)cn1,–,> 100,> 100,> 100,–,> 100,> 100,> 100,> 100,> 100,–,–,–,–,–,–,–,–,–
O=C1c2ccccc2C(=O)C1C(c1ccc([N+](=O)[O-])cc1)C1C(=O)c2ccccc2C1=O,–,> 100,> 100,> 100,> 100,> 100,> 100,32.3,> 100,–,–,–,–,–,–,–,–,–,–
CC(=O)Oc1ccccc1C(=O)C1c2cccc(O)c2C(=O)c2c(O)cccc21,7.1,3.45,0.727,3.4,3.76,6.59,2.9,2.26,3.76,–,–,–,–,–,–,–,–,–,–
COC(=O)C(Cc1nc2ccc(Cl)cc2[nH]c1=O)C(=O)C(=O)Nc1ccccc1[N+](=O)[O-] (stereo not drawn),> 100,> 100,> 100,> 100,–,> 100,> 100,> 100,> 100,–,–,–,–,–,–,–,–,–,–
CCO[C@@H]1C2C=CC(C2)[C@H]1[N+](=O)[O-] (stereo partly drawn),> 100,> 100,> 100,> 100,> 100,> 100,> 100,> 100,> 100,–,–,–,–,–,–,–,–,–,–
O=[N+]([O-])c1nccn1CC1OC(n2ccnc2[N+](=O)[O-])C(O)C(O)C1O (stereo not drawn),> 100,> 100,> 100,> 100,> 100,> 100,> 100,> 100,> 100,–,–,–,–,–,–,–,–,–,–
Cc1cccc(C)c1NC(=O)CCCC(=O)C1CCC/C1=N\NC(=O)C(=O)NN (stereo not drawn),> 100,> 100,> 100,–,–,> 100,> 100,> 100,> 100,–,–,–,–,–,–,–,–,–,–
CN(C)CCNC(=O)c1ccc(Cl)c2c(Nc3ccc(S(N)(=O)=O)cc3)c3ccccc3nc12,13.4,10.9,–,21.6,8.54,6.41,4,2.52,12.7,–,–,–,–,–,–,–,–,–,–
COc1ccc(-c2ccc(/C=N/n3c(COc4ccc(Cl)cc4)n[nH]c3=S)o2)c([N+](=O)[O-])c1,–,39.6,44.3,40.4,43.8,50.9,> 100,–,51.4,–,17.2,14.8,22.6,15.1,21.1,41.9,15.9,–,–
N#Cc1ccccc1NC(=O)c1ccccc1,> 100,> 100,–,> 100,> 100,> 100,> 100,> 100,> 100,–,–,–,–,–,–,–,–,–,–
N/N=C(\Cc1ccccc1)NN=C(N)N,> 100,> 100,> 100,–,> 100,> 100,> 100,> 100,> 100,–,–,–,–,–,–,–,–,–,–
CC(=O)c1cccc(NCn2nnc3ccccc32)c1,> 100,> 100,> 100,> 100,> 100,> 100,> 100,> 100,> 100,–,–,–,–,–,–,–,–,–,–
COc1ccc2cc3n(c2c1)CCc1cc(OC)c(OC)cc1-3,> 100,> 100,> 100,> 100,> 100,> 100,> 100,> 100,> 100,–,–,–,–,–,–,–,–,–,–
O=C(O)CCC1CCc2cccc3occ1c23 (stereo not drawn),> 100,> 100,> 100,> 100,> 100,> 100,> 100,> 100,> 100,–,–,–,–,–,–,–,–,–,–
[O-]c1on[n+]2c1c(Nc1ccc(Cl)cc1)nc1ccccc12,> 100,> 100,> 100,–,> 100,> 100,–,> 100,> 100,–,–,–,–,–,–,–,–,–,–
O=C1CCC2(c3ccccc3)Nc3cc(Cl)ccc3N12 (stereo not drawn),98.7,96.1,48.1,> 100,40.7,> 100,53.5,> 100,71.5,–,–,–,–,–,–,–,–,–,–
FC(F)(F)c1ccc2nc(Nc3ccc(Cl)c(Cl)c3)c(-c3ccccc3)nc2c1,–,> 100,> 100,> 100,> 100,> 100,> 100,> 100,> 100,–,–,–,–,–,–,–,–,–,–
CC(=O)C1=C([O-])C(C)OC1=O.CC(=O)C1=C([O-])C(C)OC1=O.[NH-]C1CCCC[C@H]1[NH-].[Pt+4] (stereo not drawn),> 100,> 100,> 100,> 100,–,> 100,> 100,> 100,> 100,–,73.2,16.1,> 100,–,63.3,> 100,> 100,15.8,8.69
COc1cnc2c(c1)C(=O)c1c-2n(CCCN2CCCC2)c(=O)c2cc(Cl)ccc12,6.01,6.42,15.2,–,12.1,7.94,22.6,8.09,21.6,–,0.0753,6.23,–,2.2,0.161,7.16,7.85,0.384,0.0313
CCOC(=O)/C(C#N)=C1\N[C@H](C(=O)OCC)CO1,–,> 100,> 100,> 100,–,> 100,62.6,> 100,> 100,–,–,–,–,–,–,–,–,–,–
O=c1cccccc1NCCCCCCCCCNc1cccccc1=O,–,36.2,24.5,35.7,41.6,65,46.8,68.2,7.35,–,–,–,–,–,–,–,–,–,–
